Measurements taken from US5380834A, “Immuno-suppressive agent” (Ishihara Sangyo Kaisha Ltd., priority 1992, dated 1995).
Converted amounts (≈) assume the structure as drawn.

Experiments:
[1] = system: IgGl antibody production from murine spleen B cells; test: Effects on the IgGl antibody production from murine spleen cells (LPS + IL4); format: cell-based, BALB/c mouse; conditions: Mus musculus, B-cell, 168 h; spleen B cells, LPS 10 μg/ml, IL4 100 U/ml, 7 days, enzyme-immunoassay; read-out: IC50 value, IgGl antibody production
Procedure: (§1) Using murine spleen B cells, the effects of the compound of the formula (I) on the IgGl, IgM and IgE antibody production induced by the stimulation by LPS (lipopolysaccharide; Product No. 520.02051, manufactured by Wako Junyaku) and IL4 (interleukin 4), were studied. Namely, spleen cells of a BALB/c mouse were treated with a murine anti-Thy-1 antibody (obtained from Chiba University) and a rabbit complement (Product No. 3051, manufactured by cedarlane) to remove T cells, and 3×10^5 spleen B cells were cultured for 7 days together with 10 μg/ml of LPS, 100 U/ml of mouse-recombinant IL4 (Product No. MIL-4C, manufactured by Genzyme) and each concentration (from […]) of the compound of the formula (I) on a microplate with 96 wells by a 10% FCS-RPMI solution (in an incubator, 5% CO2, at 37° C.).
(§2) For the basic procedure of this test, reference was made to The Journal of Immunology, Vol. 136, p. 4538, (1986).
(§3) The amount of each antibody in the cell culture supernatant hereby obtained, was measured by the following enzyme-immunoassay. Firstly, on a microplate with 96 wells, 1 μg/ml of a rabbit anti-mouse IgGl antibody (Product No. 36243, manufactured by Cappel), 1 μg/ml of a goat anti-mouse IgM antibody (Product No. 0611-0201, manufactured by Cappel) or 10 μg/ml of a rat anti-mouse IgE monoclonal antibody (Product No. LO-ME-2, manufactured by Experimental Immunology) was coated (50 μl/well, at room temperature for 60 minutes), and then a nonspecific bond was blocked by a 0.1% bovine serum albumin-containing 10 mM sodium phosphate buffer (pH 7.2) (at room temperature for 60 minutes). Then, the above-mentioned cell culture supernatant or its diluted solution was added in an amount of 50 μl/well and reacted at room temperature for 60 minutes. Further, an alkaline phosphatase-labeled rabbit anti-mouse IgGl antibody (Product No. 61-0122, manufactured by Zymet) diluted 1,000 times, an alkaline phosphatase-labeled rabbit anti-mouse IgM antibody (Product No. 61-6822, manufactured by Zymet) diluted 2,000 times, or an alkaline phosphatase-labeled goat anti-mouse IgE antibody (Product No. PA-284, manufactured by Binding Site) diluted 500 times was added in an amount of 50 μl/well and reacted at room temperature for 60 minutes. 100 μl/well of a 10% diethanol amine buffer solution (pH 9.8) containing p-nitrophenyl phosphate as an enzyme substrate, was reacted, and the absorbance at 405 nm was measured. The amount of each antibody was calculated from the calibration curve of each standard antibody, and the IC50 value of the compound of the formula (I) on the antibody production was calculated using as the control value a value obtained in the absence of the compound of the formula (I).

[2] = system: murine thymocytes; test: Effects on the mitogenic response by murine thymocytes (Con A stimulation, 3H-TdR uptake); format: cell-based, BALB/c murine; conditions: Mus musculus, Thymocyte; BALB/c thymocytes, Con A 5 μg/ml, 48 hours, 3H-TdR uptake; read-out: IC50 value, a (mitogenic response of murine thymocytes)
Procedure: Using BALB/c murine thymocytes, the effect of the compound of the formula (I) on the mitogenic response of lymphocytes to the stimulation by concanavalin A (hereinafter referred to simply as Con A, Product No. L-1000, manufactured by Vector Laboratories) was studied. Namely, 4×10^5 murine thymocytes were cultured for 48 hours on a microplate with 96 wells in a RPMI1640 solution containing 10% of a fetal bovine serum (hereinafter referred to simply as a 10% FCS-RPMI solution) together with Con A (5 μg/ml) and the compound of the formula (I) (in an incubator, 5% CO2, at 37° C.). Then, 0.5 μCi of ^3 H-thymidine (hereinafter referred to simply as ^3 H-TdR) was added thereto, and the mixture was further cultured for 4 hours. Then, cells were collected by a cell harvester, and the radioactivity (dpm) of ^3 H-TdR uptaken into cells was measured. Such measured amounts of ^3 H-TdR uptaken into the cells were used as indices of the mitogenic response of the murine thymocytes, and the radioactivity at each concentration (from 0.001 to 1,000 μg/ml) of the compound of the formula (I) was compared with the control value treated solely by Con A, to calculate IC50 value. In these Tables 12 and 13, the results of murine thymocytes are shown by (a).
For the basic procedure of this test, reference was made to Selected methods in cellular immunology, p. 144-146 (translated by Katsuyuki Imai et al., published by Rikogakusha, (1982)).

[3] = system: IgE antibody production from murine spleen B cells; test: Effects on the IgE antibody production from murine spleen cells (LPS + IL4); format: cell-based, BALB/c mouse; conditions: Mus musculus, B-cell, 168 h; spleen B cells, LPS 10 μg/ml, IL4 100 U/ml, 7 days, enzyme-immunoassay; read-out: IC50 value, IgE antibody production
Procedure: as §1, §2, §3

[4] = system: murine bone mallow cells; test: Effects on the murine bone mallow cells (proliferation, 3H-TdR uptake); format: cell-based, BALB/c mouse; conditions: Mus musculus, bone marrow cells; 20% L929 culture supernatant, 48 hours, 3H-TdR uptake; Tables 12-15; read-out: IC50 value, c (murine bone mallow cells)
Procedure: Bone mallow cells were removed from the femur of a BALB/c mouse and suspended in a 10% FCS-RPMI solution. The cell suspension was put into a plastic Petri dish having a diameter of 10 cm and left to stand still (in an incubator, 5% CO2, at 37° C.). Two hours later, only floating cells were recovered, and adhesion cells were removed. 1×10^5 floating cells were cultured for 48 hours together with a 20% culture supernatant of L929 fibroblastoma and the compound of the formula (I) on a microplate with 96 wells by a 10% FCS-RPMI solution (in an incubator, 5% CO2, at 37° C.). Then, 0.5 μCi of ^3 H-TdR was added thereto, and the mixture was further cultured for 4 hours. Then, cells were collected by a cell harvester, and the radioactivity (dpm) of ^3 H-TdR uptaken into the cells, was measured. Such measured amounts of ^3 H-TdR uptaken into the cells were used as indices for the proliferation of bone mallow cells, and the radioactivity at each concentration (from 0.001 to 1,000 μg/ml) of the compound of the formula (I) was compared with the control value where the L929 culture supernatant was added alone, to calculate the IC50 value. In these Tables 12 and 13, the results of the bone mallow cells are shown by (c).
For the basic procedure of this test, reference was made to Seikagakujikken Koza compiled by Japan Biochemistry Association, Vol. 5, p. 266-270 (published by Tokyo Kagaku Dojin in 1986).

[5] = system: murine mixed lymphocyte reaction (spleen cells of BALB/c and C57BL/6 mice); test: Effects on the murine mixed lymphocyte reaction (3H-TdR uptake); format: cell-based; conditions: Mus musculus, BALB/c + C57BL/6 spleen cells, 48 hours, read-out: IC50 value, b (murine mixed lymphocyte reaction)
Procedure: Using spleen cells of BALB/c and C57BL/6 mice, the effect of the compound of the formula (I) on the murine mixed lymphocyte reaction in both sides, was studied. Namely, spleen cells of both types of mice were mixed in an equal amount of 5×10^5 cells each, and the mixed cells were cultured together with the compound of the formula (I) for 48 hours on a microplate with 96 wells by a 10% FCS-RPMI solution (in an incubator, 5% CO2, at 37° C.). Then, 0.5 μCi of ^3 H-TdR was added thereto, and the mixture was further cultured for from 16 to 18 hours. Then, cells were collected by a cell harvester, and the radioactivity (dpm) of ^3 H-TdR uptaken into the cells, was measured. Such measured amounts of ^3 H-TdR uptaken into the cells were used as indices for the mixed lymphocyte reaction, and the radioactivity at each concentration (from 0.001 to 1,000 μg/ml) of the compound of the formula (I) was compared with the non-treated control value, to calculate the Ic50 value.
For the basic procedure for this test, reference was made to Selected methods in cellular immunology, p. 147-149 (translated by Katsuyuki Imai et al., published by Rikogakusha, (1982)).

[6] = system: IgM antibody production from murine spleen B cells; test: Effects on the IgM antibody production from murine spleen cells (LPS + IL4); format: cell-based, BALB/c mouse; conditions: Mus musculus, B-cell, 168 h; spleen B cells, LPS 10 μg/ml, IL4 100 U/ml, 7 days, enzyme-immunoassay; read-out: IC50 value, IgM antibody production
Procedure: as §1, §2, §3

| Compound | IC50 [1] [µg/mL] | IC50 [2] [µg/mL] | IC50 [3] [µg/mL] | IC50 [5] [µg/mL] | IC50 [6] [µg/mL] | IC50 [4] [µg/mL] |
| --- | --- | --- | --- | --- | --- | --- |
| CCCCCCCCCCCCCCCCCCCC(=O)O[C@H]1C=C[C@H]2CO[C@@H]1O2 [Compound 20] | 5.2 | 150 (≈ 355 µM) | 3.2 | 240 | 500 | 400 (≈ 946 µM) |
| O=C(O[C@H]1C=C[C@H]2CO[C@@H]1O2)c1ccc(Cl)cc1 [Compound 16] | 41 | 91 (≈ 341 µM) | 50 | 190 | 20 | 170 (≈ 637 µM) |
| O=C(O[C@H]1C=C[C@H]2CO[C@@H]1O2)C1CCCCC1 [Compound 4] | 100 | 450 (≈ 1890 µM) | 11 | 140 | 56 | 160 (≈ 671 µM) |
| CC(C)CC(=O)O[C@H]1C=C[C@H]2CO[C@@H]1O2 [Compound 2, 1,6-anhydro-3,4-dideoxy-2-O-isovaleryl-β-D-threo-hex-3-enopyranose] | 300 | 350 (≈ 1650 µM) | 370 | 560 | 250 | > 1000 |
| CCCCCCCCCCCCCCCC(=O)O[C@H]1C=C[C@H]2CO[C@@H]1O2 [Compound 7] | 330 | 49 (≈ 134 µM) | 180 | 76 | 410 | 89 (≈ 243 µM) |
| O=C(O[C@H]1C=C[C@H]2CO[C@@H]1O2)c1ccccc1 [Compound 5] | 300 | 130 (≈ 560 µM) | 71 | 130 | 170 | 150 (≈ 646 µM) |
| O=C(O[C@H]1C=C[C@H]2CO[C@@H]1O2)c1cccs1 [Compound 14] | 10 | 42 (≈ 176 µM) | 3.7 | 13 | 0.89 | 500 (≈ 2100 µM) |
| CNC(=S)O[C@H]1C=C[C@H]2CO[C@@H]1O2 [Compound 24, 1,6-anhydro-3,4-dideoxy-2-O-methylthiocarbamoyl-β-D-threo-hex-3-enopyranose] | 17 | 170 (≈ 845 µM) | 0.22 | 100 | 10 | 620 (≈ 3080 µM) |
| CC(=O)Oc1ccccc1C(=O)O[C@H]1C=C[C@H]2CO[C@@H]1O2 [Compound 11] | 16 | 110 (≈ 379 µM) | 32 | 170 | 28 | 210 (≈ 723 µM) |

More lines, main results first:

| IC50 [1] [µg/mL] | IC50 [2] [µg/mL] | IC50 [3] [µg/mL] | IC50 [5] [µg/mL] | IC50 [6] [µg/mL] | Compound | IC50 [4] [µg/mL] |
| --- | --- | --- | --- | --- | --- | --- |
| 0.0015 | 0.32 (≈ 1.41 µM) | 0.0034 | 430 | 78 | CC(C)(C)NC(=O)O[C@H]1C=C[C@H]2CO[C@@H]1O2 [Compound 25] | 340 (≈ 1500 µM) |
| 23 | 44 (≈ 166 µM) | 4.5 | 20 | 110 | S=C(Oc1ccccc1)O[C@H]1C=C[C@H]2CO[C@@H]1O2 [Compound 26] | 200 (≈ 757 µM) |
| 0.45 | 780 (≈ 6090 µM) | 2.1 | > 1000 | 1.3 | O[C@@H]1C=C[C@H]2CO[C@@H]1O2 [Compound 103, 1,6-anhydro-3,4-dideoxy-β-D-erythro-hex-3-enopyranose] | > 1000 |
| 190 | 110 (≈ 597 µM) | 24 | 540 | 150 | CCCC[C@]1(O)C=C[C@H]2CO[C@@H]1O2 [Compound 30] | 190 (≈ 1030 µM) |
| 34 | 49 (≈ 318 µM) | 24 | 180 | 36 | C=C[C@]1(O)C=C[C@H]2CO[C@@H]1O2 [Compound 27, 1,6-anhydro-3,4-dideoxy-2-C-vinyl-β-D-threo-hex-3-enopyranose] | 44 (≈ 285 µM) |
| 0.25 | 110 (≈ 390 µM) | 0.32 | 22 | 0.35 | Cc1ccc(S(=O)(=O)O[C@H]2C=C[C@H]3CO[C@@H]2O3)cc1 [Compound 46, 1,6-anhydro-3,4-dideoxy-2-O-(p-toluene)sulfonyl-β-D-threo-hex-3-enopyranose] | 190 (≈ 673 µM) |
| 380 | 76 (≈ 535 µM) | 280 | 280 | 590 | C[C@]1(O)C=C[C@H]2CO[C@@H]1O2 [Compound 28] | 150 (≈ 1060 µM) |
| 1.5 | 180 (≈ 927 µM) | 140 | 560 | 10 | CCCC#C[C@]1(O)C=C[C@H]2CO[C@@H]1O2 [Compound 31] | 520 (≈ 2680 µM) |
